Legend:
HFL-1 cells [1] = assay: IL-8 production assay (S1P induced IL-8); format: cell-based; conditions: Homo sapiens, HFL1; S1P (1 μM) induced IL-8 in HFL-1 cells, starvation medium without HSA; read-out: IL8 EC50
Method: This assay is designed to test inhibitory activity of compounds on S1P induced IL-8 on HFL-1 cells, ahuman fetal lung fibroblast cell line.
Human Fetal Lung cells (HFL-1) are seeded in 96 well plates in growth medium (F12K+10% heat inactivated FBS+l1% Pen/strep). After overnight incubation at 37° C., […] cells are refreshed with starvation medium without HSA (F12K+1% FBS+1% Pen/strep). On day three, compounds are added (10 point serial dilution, 30 μM highest concentration, 1/3 dilution, 0.3% DMSO final) and plates are incubated for one h at 37° C., 5% CO2. Subsequently S1P at 1 μM final concentration is added and plates are incubated for 16 to24 h at 37° C., […] after which the supermatant was collected. IL-8 levels in the supernatant are determined with the IL-8 ELISA of R&D systems.

[2] = biological target: T1, human GPCR sphingosine 1-phosphate receptor 2 (Homo sapiens, UniProt O95136); assay: S1PR2 antagonist Ca2+ flux assay; format: cell-based; conditions: antagonist mode, CHO-S1PR2 cells, S1P at EC80, Ca2+ fluorescence; read-out: S1P2 EC50 (nM), S1P2 antagonist EC50
T1 construct: host or cells: CHO
T1 sequence (O95136 whole entry): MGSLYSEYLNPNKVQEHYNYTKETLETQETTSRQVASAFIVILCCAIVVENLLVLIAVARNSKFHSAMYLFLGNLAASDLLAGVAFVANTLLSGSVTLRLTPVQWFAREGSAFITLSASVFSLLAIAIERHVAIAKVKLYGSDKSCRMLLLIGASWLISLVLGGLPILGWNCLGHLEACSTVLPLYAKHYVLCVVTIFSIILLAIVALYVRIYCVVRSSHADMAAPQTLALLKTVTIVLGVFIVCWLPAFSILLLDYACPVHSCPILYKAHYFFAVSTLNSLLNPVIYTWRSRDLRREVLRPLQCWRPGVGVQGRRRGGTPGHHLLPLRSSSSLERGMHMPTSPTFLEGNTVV
In short: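 CHO cells stably expressing human S1PR2, serum-starved 1 h, Fluo8-loaded; compound-evoked Ca2+ fluorescence read 3 min (agonist mode), then after 15 min S1P at EC80 added and read 3 min (antagonist mode). Max/baseline fluorescence ratios normalised to vehicle and S1P EC100 or EC50 controls; EC50 derived.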

S1PR2 = biological target: T2, S1PR2 (Homo sapiens, UniProt O95136); assay: S1PR2 binding assay (competition with radioactively labeled S1P, SpA); conditions: membranes from stable cell line over expressing S1PR2, SpA beads; read-out: S1P2 EC50 (nM), S1PR2 binding EC50
T2 construct: expressed in transfected cells
T2 sequence (O95136 whole entry): as above
In short: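 Competition with [3H]S1P for membranes from a stable S1PR2-overexpressing cell line, 20 μg/well, captured on PVT-WGA SPA beads, in 20 mM Tris pH 7.5, 10 mM MgCl2, 100 mM NaCl, 0.4% fatty-acid-free BSA, 1 mM Na3VO4. 2 h at room temperature, then centrifugation and scintillation counting.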

HFL-1 cells [3] = assay: IL8 assay in the presence of Human Serum Albumin; conditions: HFL1, read-out: HSA IL8 EC50

| EC50 (HFL-1 cells [1]) | EC50 [2] | EC50 (S1PR2) | EC50 (HFL-1 cells [3]) | Compound |
| --- | --- | --- | --- | --- |
| 34.8 nM | 25 nM | 141 nM | 80.9 nM | COC1CCN(C(=O)Cn2nc(Cc3nc4cc(C#N)c(OCC(F)F)cc4[nH]3)c3ccccc3c2=O)C1 (centres unmarked) [Compound 186, 6-(2,2-difluoroethoxy)-2-[[3-[2-(3-methoxypyrrolidin-1-yl)-2-oxo-ethyl]-4-oxo-phthalazin-1-yl]methyl]-1H-benzimidazole-5-carbonitrile] |
| 74.5 nM | 50.2 nM | 165 nM | 80.4 nM | COCCNC(=O)Cn1nc(Cc2nc3cc(C#N)c(OCC(F)F)cc3[nH]2)c2ccccc2c1=O [Compound 187, 2-[4-[[5-cyano-6-(2,2-difluoroethoxy)-1H-benzimidazol-2-yl]methyl]-1-oxo-phthalazin-2-yl]-N-(2-methoxyethyl)acetamide] |
| 258 nM | 63.4 nM | 380 nM | 663 nM | N#Cc1cc2nc(Cc3nn(CC(=O)N4CCC(F)(F)CC4)c(=O)c4ccccc34)[nH]c2cc1OCC(F)F [Compound 188, 6-(2,2-difluoroethoxy)-2-[[3-[2-(4,4-difluoro-1-piperidyl)-2-oxo-ethyl]-4-oxo-phthalazin-1-yl]methyl]-1H-benzimidazole-5-carbonitrile] |
| 20.1 nM | 15 nM | 63.6 nM | 38 nM | CC(O)(CNC(=O)Cn1nc(Cc2nc3cc(C#N)c(OCC(F)F)cc3[nH]2)c2ccccc2c1=O)C(F)(F)F (centres unmarked) [Compound 190, 2-[4-[[5-cyano-6-(2,2-difluoroethoxy)-1H-benzimidazol-2-yl]methyl]-1-oxo-phthalazin-2-yl]-N-(3,3,3-trifluoro-2-hydroxy-2-methylpropyl)acetamide] |
| 36.6 nM | 11.8 nM | 66.4 nM | 99.9 nM | N#Cc1cc2nc(Cc3nn(CC(=O)NC[C@H](O)C(F)(F)F)c(=O)c4ccccc34)[nH]c2cc1OCC(F)F [Compound 191, 2-[4-[[5-cyano-6-(2,2-difluoroethoxy)-1H-benzimidazol-2-yl]methyl]-1-oxo-phthalazin-2-yl]-N-[(2S)-3,3,3-trifluoro-2-hydroxypropyl]acetamide] |
| 156 nM | 41 nM | 190 nM | 666 nM | COCC(O)CNC(=O)Cn1nc(Cc2nc3cc(C#N)c(OCC(F)F)cc3[nH]2)c2ccccc2c1=O (centres unmarked) [Compound 192, 2-[4-[[5-cyano-6-(2,2-difluoroethoxy)-1H-benzimidazol-2-yl]methyl]-1-oxo-phthalazin-2-yl]-N-(2-hydroxy-3-methoxypropyl)acetamide] |
| 49.7 nM | 36.5 nM | 346 nM | 183 nM | N#Cc1cc2nc(Cc3nn(CC(=O)N4CCC(O)CC4)c(=O)c4ccccc34)[nH]c2cc1OCC(F)F [Compound 193, 6-(2,2-difluoroethoxy)-2-[[3-[2-(4-hydroxy-1-piperidyl)-2-oxo-ethyl]-4-oxo-phthalazin-1-yl]methyl]-1H-benzimidazole-5-carbonitrile] |
| 186 nM | 41.9 nM | 268 nM | 453 nM | N#Cc1cc2nc(Cc3nn(CC(=O)N(CCO)CC(F)F)c(=O)c4ccccc34)[nH]c2cc1OCC(F)F [Compound 194, 2-[4-[[5-cyano-6-(2,2-difluoroethoxy)-1H-benzimidazol-2-yl]methyl]-1-oxo-phthalazin-2-yl]-N-(2,2-difluoroethyl)-N-(2-hydroxyethyl)acetamide] |
| 27.8 nM | 31.9 nM | 197 nM | 171 nM | CC(C#N)CN(C)C(=O)Cn1nc(Cc2nc3cc(C#N)c(OCC(F)F)cc3[nH]2)c2ccccc2c1=O (centres unmarked) [Compound 195, 2-[4-[[5-cyano-6-(2,2-difluoroethoxy)-1H-benzimidazol-2-yl]methyl]-1-oxo-phthalazin-2-yl]-N-(2-cyanopropyl)-N-methyl-acetamide] |
| 27.2 nM | 15.7 nM | 83.1 nM | 445 nM | CN(CC1CC1)C(=O)Cn1nc(Cc2nc3cc(C#N)c(OCC(F)F)cc3[nH]2)c2ccccc2c1=O [Compound 196, 2-[4-[[5-cyano-6-(2,2-difluoroethoxy)-1H-benzimidazol-2-yl]methyl]-1-oxo-phthalazin-2-yl]-N-(cyclopropylmethyl)-N-methyl-acetamide] |
| 139 nM | 32.5 nM | 80.3 nM | 634 nM | CN(CC(F)F)C(=O)Cn1nc(Cc2nc3cc(C#N)c(OCC(F)F)cc3[nH]2)c2ccccc2c1=O [Compound 197, 2-[4-[[5-cyano-6-(2,2-difluoroethoxy)-1H-benzimidazol-2-yl]methyl]-1-oxo-phthalazin-2-yl]-N-(2,2-difluoroethyl)-N-methyl-acetamide] |
| 80.3 nM | 54.6 nM | 173 nM | 276 nM | N#Cc1cc2nc(Cc3nn(CC(=O)NCC4(CO)COC4)c(=O)c4ccccc34)[nH]c2cc1OCC(F)F [Compound 199, 2-[4-[[5-cyano-6-(2,2-difluoroethoxy)-1H-benzimidazol-2-yl)methyl]-1-oxo-phthalazin-2-yl]-N-[[3-(hydroxymethyl)oxetan-3-yl]methyl]acetamide] |
| 10.6 nM | 8.77 nM | 93.7 nM | 103 nM | N#Cc1cc2nc(Cc3nn(CC(=O)N4CCOCC4)c(=O)c4c3CCCC4)[nH]c2cc1OCC(F)(F)F [Compound 200, 2-[[3-(2-morpholino-2-oxo-ethyl)-4-oxo-5,6,7,8-tetrahydrophthalazin-1-yl]methyl]-6-(2,2,2-trifluoroethoxy)-1H-benzimidazole-5-carbonitrile] |
| 13.4 nM | 6.86 nM | 48 nM | 479 nM | CC(C)(C)CNC(=O)Cn1nc(Cc2nc3cc(OCC(F)F)c(C#N)cc3[nH]2)c2ccccc2c1=O [Compound 202, 2-[4-[[6-cyano-5-(2,2-difluoroethoxy)-1H-benzimidazol-2-yl]methyl)-1-oxo-phthalazin-2-yl]-N-(2,2-dimethylpropyl)acetamide] |
| 1020 nM | 148 nM | 343 nM | 1940 nM | CC(C)(C)NC(=O)Cn1nc(Cc2nc3cc(OCC(F)F)c(C#N)cc3[nH]2)c2c(c1=O)CCCC2 [Compound 203, N-tert-butyl-2-[4-[[6-cyano-5-(2,2-difluoroethoxy)-1H-benzimidazol-2-yl]methyl]-1-oxo-5,6,7,8-tetrahydrophthalazin-2-yl]acetamide] |
| 2640 nM | 13200 nM | 7680 nM | 9070 nM | N#Cc1cc2nn(Cc3nn(CC(=O)N4CCOCC4)c(=O)c4ccccc34)cc2cc1OCC(F)F [Compound 205, 5-(2,2-difluoroethoxy)-2-[[3-(2-morpholino-2-oxo-ethyl)-4-oxo-phthalazin-1-yl]methyl]indazole-6-carbonitrile] |
| 2990 nM | ≥ 19800 nM | 3620 nM | 2630 nM | CN(C)[C@@H]1CCN(C(=O)Cn2nc(Cn3cc4cc(OCC(F)F)c(C#N)cc4n3)c3ccccc3c2=O)C1 [Compound 206] |
| 29900 nM | ≥ 19800 nM | 21900 nM | 3030 nM | CN(C)[C@H]1CCN(C(=O)Cn2nc(Cn3cc4cc(OCC(F)F)c(C#N)cc4n3)c3ccccc3c2=O)C1 [Compound 207, 5-(2,2-difluoroethoxy)-2-[[3-[2-[(3S)-3-(dimethylamino)pyrrolidin-1-yl]-2-oxo-ethyl]-4-oxo-phthalazin-1-yl]methyl]indazole-6-carbonitrile] |
| 356 nM | 102 nM | 233 nM | 188 nM | CC1(O)CCN(C(=O)Cn2nc(Cc3cn4cc(OCC5CC5)c(C#N)cc4n3)c3ccccc3c2=O)C1 (centres unmarked) [Compound 210, 6-(cyclopropylmethoxy)-2-[[3-[2-(3-hydroxy-3-methyl-pyrrolidin-1-yl)-2-oxo-ethyl]-4-oxo-phthalazin-1-yl]methyl)imidazo[1,2-a]pyridine-7-carbonitrile] |
| 177 nM | 32.4 nM | 265 nM | 607 nM | N#Cc1cc2[nH]c(Cc3nn(CC(=O)N4CCC(C#N)CC4)c(=O)c4ccccc34)nc2cc1OCC(F)F [Compound 219, 2-[[3-[2-(4-cyano-1-piperidyl)-2-oxo-ethyl]-4-oxo-phthalazin-1-yl]methyl]-6-(2,2-difluoroethoxy)-3H-benzimidazole-5-carbonitrile] |

Source: patent US20210315893A1 (Galapagos NV, priority 2017, published 2021)
